{
  "source": "patent US20240000821A1",
  "about": "“CHEMICAL INHIBITORS AGAINST KINASES TO BLOCK TELOMERE ELONGATION IN CANCER” (THE JOHNS HOPKINS UNIVERSITY, priority 2016, published 2024)",
  "key": {"SL13 cells": {"system": "SL13 cells", "test": "Inhibition of SVA mediated telomere elongation (telomere Southern blot)", "assay_type": "cell-based, mouse", "settings": "for concentration dependence of the block of telomere elongation: several concentrations, FIG. 6, FIG. 7B", "protocol": "Inhibition of SVA mediated telomere elongation. First, 2×10^5 SL13 cells were plated onto a 6-well dish in DMEM (Gibco) with 10% FBS (Sigma) and 1% Penicillin-Streptomycin-Glutamine (Gibco). SL13 cells are a mouse fibroblast line that was derived as described (Lee et al., 299(Pt 1) BIOCHEM. J. 123-28 (2015)). After 24 hours, the drug or vehicle was added at the indicated concentration for the duration of the experiment. 24 hours later, SVA virus was added at an MOI of 0.5. 2 population doublings were estimated during the initial 48 hours; therefore 400,000 transduction units of SVA were added to 800,000 cells. Media was changed at 24 hours post transduction, and cell pellets were collected at 2 and 6 days post transduction.\nTelomere Southern Blot. Telomere length was measured by telomere restriction fragment Southern blot. Genomic DNA was extracted using Puregene Core Kit A (Qiagen). 1-3 μg of gDNA was digested with MseI (NEB) and loaded onto a 0.7% TAE Agarose gel. The gel was run at 37 V for 16 hours, then denatured for 30 minutes in 0.5 M NaOH and 1.5 M NaCl, then neutralized for 30 minutes in 1.5 M NaCl and 0.5 M Tris-HCl pH 7.4. The DNA was transferred from the gel to a nylon membrane (Amersham Hybond N+) by the weighted method overnight. Next, DNA was crosslinked to the membrane with a UV Stratalinker (Stratagene). The membrane was then pre-incubated for 2 hours at 65° C. with Church's Buffer. Telomere probe and 2-log ladder (Life Technologies) was then end-labeled with Klenow fragment polymerase (NEB) 33 μM of dATP, dTTP, dGTP and 50 μCi of α-32P dCTP (3000 Ci/mmol). Unincorporated nucleotides were removed by running on a G50 column (GE Healthcare). Labeled probe was counted, denatured at 100° C., and 10^6 counts/mL telomere probe and 2×10^4 counts/mL of 2-log ladder were added. The membrane was probed overnight at 65° C. The next day, the membrane was washed twice with 2×SSC 0.1% SDS, then twice with 0.5×SSC 0.1 SDS. The membrane was exposed on a phosphorimager (GE Healthcare) and imaged on a STORM scanner (GE Healthcare)."}, "mouse fibroblasts": {"system": "mouse fibroblasts", "test": "toxicity to mouse fibroblasts", "assay_type": "cell-based", "settings": "data not shown"}, "CK1": {"system": "CK1", "settings": "Selleckchem, read-out: in vitro IC50; cited from earlier work"}, "[1]": {"settings": "10 μM, days 2 and 6 post SVA transduction"}, "[2]": {"settings": "0.5 μM, days 2 and 6 post SVA transduction, FIG. 7A"}},
  "data": [
    {"smiles": "O=c1cc(-c2cccc3c2Sc2ccccc2S3)oc(N2CCOCC2)c1", "note": "[KU-55933]", "values": [
      {"measurement": "effect on telomere elongation by SVA", "setting": "SL13 cells; [1]", "value": "blockage"}
    ]},
    {"smiles": "Cc1sc2c(c1C)C(c1ccc(Cl)cc1)=N[C@@H](CC(=O)OC(C)(C)C)c1nnc(C)n1-2", "note": "[JQ1]", "values": [
      {"measurement": "effect on telomere elongation by SVA", "setting": "SL13 cells; 11 nM, days 2 and 6 post SVA transduction, FIG. 6", "value": "virtually no effect on telomere elongation"},
      {"measurement": "effect on telomere elongation by SVA", "setting": "SL13 cells; 33 nM, days 2 and 6 post SVA transduction, FIG. 6", "value": "intermediate telomere length"},
      {"measurement": "effect on telomere elongation by SVA", "setting": "SL13 cells; 0.1 μM, telomere length day 6 vs day 2 post SVA transduction, FIG. 5A", "value": "blocked telomere elongation"},
      {"measurement": "effect on telomere elongation by SVA", "setting": "SL13 cells; 100 nM, days 2 and 6 post SVA transduction, FIG. 6", "value": "blocked nearly all SVA mediated elongation"},
      {"measurement": "concentration dependence of the block of telomere elongation", "setting": "SL13 cells", "value": "titrates with its concentration"}
    ]},
    {"smiles": "Cc1sc2c(c1C)C(c1ccc(Cl)cc1)=N[C@@H](CC(=O)Nc1ccc(O)cc1)c1nnc(C)n1-2", "note": "[OTX015]", "values": [
      {"measurement": "effect on telomere elongation by SVA", "setting": "SL13 cells; 0.4 μM, days 2 and 6 post SVA transduction, FIG. 5B", "value": "blocked SVA induced telomere elongation"}
    ]},
    {"smiles": "NC(=O)c1ccc(-c2nc(-c3ccc4c(c3)OCCO4)c(-c3ccccn3)[nH]2)cc1", "note": "[Compound D4476]", "values": [
      {"measurement": "effect on telomere elongation by SVA", "setting": "SL13 cells; 0.37 μM, compared to DMSO control, FIG. 7B", "value": "able to block some telomere elongation"},
      {"measurement": "effect on telomere elongation by SVA", "setting": "SL13 cells; [1]", "value": "blocked telomere elongation"},
      {"measurement": "effect on telomere elongation by SVA", "setting": "SL13 cells; lower concentrations (3.33 μM, 1.11 μM or 0.37 μM), FIG. 7B", "value": "less blockage of telomere elongation"},
      {"measurement": "concentration dependence of the block of telomere elongation", "setting": "SL13 cells", "value": "[…]"},
      {"measurement": "tolerated concentration", "setting": "mouse fibroblasts", "value": "[…]"},
      {"measurement": "IC50", "setting": "CK1", "value": "[…]"}
    ]},
    {"smiles": "Cn1nccc1Nc1nccc(-c2ccn([C@H](CO)c3ccc(Cl)c(F)c3)c(=O)c2)n1", "note": "[GDC-0994]", "values": [
      {"measurement": "effect on telomere elongation by SVA", "setting": "SL13 cells; [1]", "value": "blocked telomere elongation"}
    ]},
    {"smiles": "Nc1[nH]nc2nnc(-c3c(-c4ccccc4)nn4ccccc34)cc12", "note": "[FR-180204]", "values": [
      {"measurement": "effect on telomere elongation by SVA", "setting": "SL13 cells; [1]", "value": "minimal effect on telomere elongation"}
    ]},
    {"smiles": "Cc1cc(/N=N/c2ccc(S(=O)(=O)Nc3ccccn3)cc2)c(N)cc1O", "note": "[MS436]", "values": [
      {"measurement": "effect on telomere elongation by SVA", "setting": "SL13 cells; 5 μM, days 2 and 6 post SVA transduction", "value": "blocked SVA induced telomere elongation"}
    ]},
    {"smiles": "Nc1ncnc2c1c(I)cn2[C@@H]1O[C@H](CO)[C@@H](O)[C@H]1O", "note": "[5-Iodotubercidin]", "values": [
      {"measurement": "effect on telomere elongation by SVA", "setting": "SL13 cells; [2]", "value": "did not affect telomere elongation"}
    ]},
    {"smiles": "COc1cc2c(cc1-c1c(C)noc1C)ncc1[nH]c(=O)n([C@H](C)c3ccccn3)c12", "note": "[I-BET151]", "values": [
      {"measurement": "effect on telomere elongation by SVA", "setting": "SL13 cells; 1 μM, days 2 and 6 post SVA transduction, FIG. 5C", "value": "blocked SVA induced telomere elongation"}
    ]},
    {"smiles": "COc1cc(OC)c(C=C2C(O)=Nc3ccccc32)c(OC)c1", "note": "[IC261]", "values": [
      {"measurement": "effect on telomere elongation by SVA", "setting": "SL13 cells; [2]", "value": "did not affect telomere elongation"},
      {"measurement": "cell death", "setting": "mouse fibroblasts; 2.5 μM", "value": "significant cell death"},
      {"measurement": "IC50", "setting": "CK1", "value": 16, "unit": "µM"}
    ]}
  ]
}
